Results published in paper PMC7725824, “Fused isoselenazolium salts suppress breast cancer cell growth by dramatic increase in pyruvate-dependent mitochondrial ROS production” (Scientific Reports, 2020).

Key:
[1] = Cytotoxicity assay (MTT), A7r5; type: cell-based, rat; conditions: rat, A7r5 cells (vascular smooth muscle cells), normal cell line, mean ± S.D., 3 experiments
Description: MCF-7 (human breast adenocarcinoma, estrogen-positive) and 4T1 (mouse carcinoma), as breast cancer cell lines, and H9C2 (rat cardiomyoblasts), NIH 3T3 (mouse fibroblasts), HEKa (primary human epidermal keratinocytes), MDCK (Madin-Darby Canine Kidney) cells, and A7r5 (rat vascular smooth muscle cells), as normal cell lines, were obtained from the American Type Culture Collection [ATCC] collection for use in the current study. All cell lines were cultured in Dulbecco's modified Eagle's medium (DMEM) containing 10% fetal bovine serum (FBS) and 4 mM L-glutamine at 37 °C and 5% CO2.
Cell viability was assessed by the addition of 3-(4,5-dimethylthiazol-2-yl)-2,5-diphenyltetrazolinium bromide (MTT). Briefly, cells were seeded (2–6 × 10^4 cells/ml) in 96-well plates and allowed to attach for 24 h. Solutions of test compounds were prepared and serially diluted to obtain the appropriate concentrations. The cells were treated with the test compounds at different concentrations (0.032–100 µM) and incubated for 48 h at 37 °C and 5% CO2. Then, the culture medium was removed, and medium containing 0.2 mg/ml MTT was added. After 3 h (37 °C, 5% CO2), the MTT-containing medium was removed, and 200 μl of dimethyl sulfoxide (DMSO) was immediately added to each sample. The absorbance was assessed at 540 nm using a Tecan multiplate reader Infinite 1000 (Austria). The half-maximal inhibitory concentration (IC50) of each compound was calculated using Graph Pad Prism 3.0.

[2] = tested on: MCF-7 cells; assay: Fluorometric measurement of NMN level; type: cell-based, human; conditions: 2 μM, 10 min, vs control
Description: For fluorometric measurements of NMN, a previously described method was used, with minor modifications. […] The cells were washed with PBS and then lysed by adding 200 μl of 1 M HClO4 to each well and incubating at 4 °C for 20 min. The cells were harvested by scraping and transferred to a tube. The extracts were neutralized with 100 μl of 2 M KOH for 5 min at room temperature and 50 μl of 0.1 M bicine (pH 7.4) was added. The samples were centrifuged at 14 000 × g for 10 min at 4 °C, and the supernatant was collected for further analysis. The protein concentration in each sample was determined using a Bio-Rad protein assay kit. […] The reaction was incubated for 2 min at 4 °C, after which 45 μl of 88% formic acid was added, and the samples were incubated for another 10 min at 37 °C on a shaker. The fluorescence was measured using a Tecan multiplate reader Infinite 1000 (Austria) with excitation at 382 nm and emission at […].

[3] = tested on: permeabilized 4T1 cells; assay: High-resolution fluorespirometry (respiration and H2O2 flux); type: cell-based, mouse
Description: High-resolution fluorespirometry was performed using an Oxygraph-2 k system (OROBOROS INSTRUMENTS, Austria). All experiments were performed at 37 °C in MiR05 medium (110 mM sucrose, 60 mM K-lactobionate, 0.5 mM EGTA, 3 mM MgCl2, 20 mM taurine, 10 mM KH2PO4, 20 mM HEPES, pH 7.1 at 30 °C, and 0.1% BSA essentially fatty acid free). The medium was reoxygenated when the oxygen concentration dropped to 80 µM. H2O2 flux was simultaneously measured with respirometry in the O2k-Fluorometer using the H2O2-sensitive probe Ampliflu Red (AmR) as described. The H2O2/O flux ratio [%] was calculated as the H2O2 flux/(0.5 O2 flux).
In permeabilized 4T1 cells, pyruvate + malate (5 and 2 mM) or glutamate + malate (10 and 2 mM) were used to determine complex I (CI)-linked LEAK (L) respiration. ADP was added to a concentration of 5 mM to determine the oxidative phosphorylation-dependent respiration (OXPHOS state). Succinate (10 mM, complex II (CII) substrate) was then added to reconstitute convergent CI&II-linked respiration. Rotenone (0.5 µM, an inhibitor of complex I) and antimycin A (2.5 µM, an inhibitor of complex III) were added to determine the CII-linked OXPHOS capacity and residual oxygen consumption (ROX), respectively. Compound 6 was added to permeabilized cells after the addition of the respective substrates in the OXPHOS state (titration experiment) or in the LEAK state. In addition, compounds 3, 6 and 7 were tested at 1 µM in the OXPHOS coupling protocol in the LEAK state. The OXPHOS coupling efficiency was calculated as: 1-Resp.rateLEAKstate/Resp.rateOXPHOSstate
The substrate-dependent flux control factor was calculated as: 1-Resp.ratebeforeadditionofrespectivesubstrate/Resp.rateafteradditionofrespectivesubstrate

[4] = tested on: CL/DOPC (1:3) vesicles (cardiolipin); assay: Isothermal titration calorimetry with CL/DOPC liposomes; type: binding; conditions: 25 °C
Description: The obtained large multilamellar liposomes were sonicated in a bath-type sonicator (Cole Parmer Ultrasonic Cleaner 8891CPX (USA)) at room temperature for 30 min and then extruded (LiposoFast-Basic, Avestin) through a 100 nm polycarbonate filter 21 times. The quality of the resulting small unilamellar vesicles was determined by dynamic light scattering (DLS) (Zetasizer Nano ZSP, Malvern Panalytical Ltd., UK).
The experiments were carried out using an isothermal titration calorimeter (MicroCal iTC200, Malvern Panalytical Ltd., UK). To carry out the titration, the injection syringe was filled with a solution of compound 6 (100 µM), and the reaction cell was filled with liposome dispersion (200 µM of total lipid). The experiments were performed at 25 and 37 °C with a stirring speed of 750 rpm. […] The data consisted of a series of heat flows as a function of time, which were collected automatically and analyzed by Origin 7 software (OriginLab Corporation, Northampton, USA, www.originlab.com, 2002). The changes in enthalpy (ΔH) due to the interactions between 6 and the liposome dispersions were recorded, and then stoichiometry (N), the association constant (KA), the dissociation constant (KD), entropy (ΔS) and the Gibbs free energy (ΔG) were calculated. The obtained sigmoidal titration curves were evaluated assuming independent saturable binding sites in the outer vesicle interface. […]

[5] = 1 µM, pyruvate-dependent OXPHOS state
[6] = titration, pyruvate + malate and glutamate + malate, OXPHOS

Q: For `OC1(c2[se][n+]3ccsc3c2Br)CCCCC1` [Compound 6, 3-bromo-2-(1-hydroxycyclohexyl)[1,2]selenazolo[2,3-b]thiazolium chloride], which IC50 at 48 h [1] is on record?
A: 1.97 ± 0.27 µM

Q: What about the “decrease in NMN levels” value [2] of the same compound?
A: 26%

Q: And the “H2O2 production and H2O2/O ratio in the CI&II-linked OXPHOS state” value ([3]; 1 µM)?
A: significant increases

Q: And the OXPHOS coupling efficiency ([3]; 1 µM)?
A: significant decrease

Q: And the “respiration rate in the OXPHOS state with pyruvate and malate” value ([3]; 1 µM)?
A: decreased

Q: What about the “increase in H2O2/O ratio” value [3, 5] of the same compound?
A: 2.8 fold

Q: And the “increase in H2O2 production” value [3, 5]?
A: 2.3 fold

Q: And the “mitochondrial function in the CII-linked OXPHOS state” value ([3]; titration)?
A: no significant changes

Q: And the “H2O2 production with complex I (NADH-linked) substrates” value [3, 6]?
A: increased

Q: What about the “mitochondrial respiration rate with complex I (NADH-linked) substrates” value [3, 6] of the same compound?
A: inhibited

Q: And the “ITC isoselenazolium cation–CL interaction” value [4]?
A: decrease in enthalpy
